Source: ChEMBL document CHEMBL3217457, “Carbazolepyrrolo[2,1-c][1,4]benzodiazepine conjugates: design, synthesis, and biological evaluation” (Medchemcomm, 2011)

What was measured:
SiHa = assay: Growth inhibition of human SiHa cells; assay type: functional
Calf thymus DNA = assay: Binding affinity to calf thymus DNA assessed as change in melting temperature at compound to DNA ratio of 1:5 after 18 hrs by thermal denaturation analysis; assay type: nucleic-acid assay; conditions: Bos taurus
COLO 205 = assay: Growth inhibition of human COLO205 cells; assay type: functional
PC-3 = assay: Growth inhibition of human PC3 cells; assay type: functional
HOP-62 = assay: Growth inhibition of human HOP62 cells; assay type: functional
ZR-75-1 = assay: Growth inhibition of human ZR-75-1 cells; assay type: functional
MCF7 [1] = assay: Growth inhibition of human MCF7 cells; assay type: functional
[2] = Growth inhibition of human Gurav cells; assay type: functional
A549 = assay: Growth inhibition of human A549 cells; assay type: functional
A2780 = assay: Growth inhibition of human A2780 cells; assay type: functional
KB = assay: Growth inhibition of human KB cells; assay type: functional
MCF7 [3] = assay: Cell cycle arrest in human MCF7 cells assessed as accumulation at G2/M phase at 4 uM after 24 hrs by propidium iodide staining based flow cytometry (reference value: 24.95%); assay type: functional
MCF7 [4] = assay: Cell cycle arrest in human MCF7 cells assessed as accumulation at G0 phase at 4 uM after 24 hrs by propidium iodide staining based flow cytometry (reference value: 2.77%); assay type: functional
MCF7 [5] = assay: Cell cycle arrest in human MCF7 cells assessed as accumulation at S phase at 4 uM after 24 hrs by propidium iodide staining based flow cytometry (reference value: 14.30%); assay type: functional
MCF7 [6] = assay: Cell cycle arrest in human MCF7 cells assessed as accumulation at G0/G1 phase at 4 uM after 24 hrs by propidium iodide staining based flow cytometry (reference value: 60.75%); assay type: functional
MCF7 [7] = assay: Cell cycle arrest in human MCF7 cells assessed as accumulation at G1 phase at 4 uM after 24 hrs by propidium iodide staining based flow cytometry (reference value: 57.98%); assay type: functional

Structure (SMILES)	GI50 (SiHa) [nM]	ΔTm (Calf thymus DNA) [°C]	GI50 (COLO 205) [nM]	GI50 (PC-3) [nM]	GI50 (HOP-62) [nM]	GI50 (ZR-75-1) [nM]	GI50 (MCF7 [1]) [nM]	GI50 [2] [nM]	GI50 (A549) [nM]	GI50 (A2780) [nM]	GI50 (KB) [nM]	Activity (MCF7 [3]) [%]	Activity (MCF7 [4]) [%]	Activity (MCF7 [5]) [%]	Activity (MCF7 [6]) [%]	Activity (MCF7 [7]) [%]
COc1cc2c(cc1OCCCCN1CCN(CCCn3c4ccccc4c4ccccc43)CC1)N=C[C@@H]1CCCN1C2=O	160	7.9	170	140	110	160	150	150	140	140	160					
COc1cc2c(cc1OCCCCN1CCN(CCCCn3c4ccccc4c4ccccc43)CC1)N=C[C@@H]1CCCN1C2=O	150	8.4	160	100	80	150	120	170	130	160	150					
COc1ccc(-c2ccc3c(c2)c2cc(-c4ccc(OC)cc4)ccc2n3CCCN2CCN(CCCOc3cc4c(cc3OC)C(=O)N3CCC[C@H]3C=N4)CC2)cc1	120	7.2	80	120	100	130	40	120	130	10	110					
COc1cc2c(cc1OCCCn1c3ccccc3c3ccccc31)N=C[C@@H]1CCCN1C2=O	1700	4	1680		1930	1890	1850	1600	1840	1210	1870					
COc1cc2c(cc1OCCCN1CCN(CCCCn3c4ccccc4c4ccccc43)CC1)N=C[C@@H]1CCCN1C2=O	130	8.5	140	110	100	150	150	130	120	110	140					
COc1ccc(-c2ccc3c(c2)c2cc(-c4ccc(OC)cc4)ccc2n3CCCCCOc2cc3c(cc2OC)C(=O)N2CCC[C@H]2C=N3)cc1	170	5.9	180	150	120		140		160	140	170					
COc1ccc(-c2ccc3[nH]c4ccc(-c5ccc(OC)cc5)cc4c3c2)cc1												21.53	4.39	11.84	66.63	62.24
